For test [1], the target named is T1, Invertase from Candida utilis (Williopsis jadinii, UniProt O94224).
T1 construct: gene INV1; commercial native enzyme, Seikagaku Biobusiness Corporation
T1 sequence (O94224 1-533): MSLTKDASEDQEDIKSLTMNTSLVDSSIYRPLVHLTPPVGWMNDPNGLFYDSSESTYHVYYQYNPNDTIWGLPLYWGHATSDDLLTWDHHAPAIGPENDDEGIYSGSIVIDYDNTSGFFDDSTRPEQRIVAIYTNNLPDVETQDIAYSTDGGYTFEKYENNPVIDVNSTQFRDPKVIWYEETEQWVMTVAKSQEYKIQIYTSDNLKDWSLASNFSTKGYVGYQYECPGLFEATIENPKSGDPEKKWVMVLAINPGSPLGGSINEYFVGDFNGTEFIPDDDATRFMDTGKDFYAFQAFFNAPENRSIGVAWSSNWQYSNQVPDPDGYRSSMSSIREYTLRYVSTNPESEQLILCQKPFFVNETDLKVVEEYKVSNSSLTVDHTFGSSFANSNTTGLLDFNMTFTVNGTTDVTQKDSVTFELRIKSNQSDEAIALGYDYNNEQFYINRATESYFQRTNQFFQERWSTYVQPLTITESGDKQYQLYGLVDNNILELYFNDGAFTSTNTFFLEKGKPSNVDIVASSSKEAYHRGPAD
Nature of the test: glucose release from sucrose, capillary electrophoresis of PMP derivatives. Format: biochemical. Conditions: substrate sucrose (100 µg), acetate buffer pH 4.5, 15 min. The source says:
glucose release from sucrose, capillary electrophoresis of PMP derivatives on Invertase from Candida utilis

Test [2] addresses T2, maltase (α-(1-4) glucosidase) from Saccharomyces.
T2 construct: gene MAL12; commercial enzyme, Sigma-Aldrich Japan
Nature of the test: glucose release from maltose, capillary electrophoresis of PMP derivatives. Format: biochemical. Conditions: substrate maltose; citric buffer pH 6.8 or acetate buffer pH 4.5 (text does not assign clearly), 15 min. The source says:
glucose release from maltose, capillary electrophoresis of PMP derivatives on maltase (α-(1-4) glucosidase) from Saccharomyces

Take `OC[C@H]1OC(O)[C@H](O)[C@@H](O)[C@@H]1OC[C@H]1OC(O)(CO)[C@@H](O)[C@@H]1O` (some centres unmarked) [maplebiose1]: the IC50 in test [1] turned out to be 1170 µM; in test [2], 1720 µM.

For orientation: IC50 means the concentration needed to halve the response being measured. A high value points to weaker potency in that assay.

(Values after publication PMC6834145, “Identification of a Novel Oligosaccharide in Maple Syrup as a Potential Alternative Saccharide for Diabetes Mellitus Patients” (International Journal of Molecular Sciences, 2019).)
